The text below walks through data of DBAASP.

Assay in all cases: ≥ marks a high value that may be exact or a test limit, other limits are often not marked, values filed in µg/mL are converted to µM
Assay [1] deals with Staphylococcus epidermidis ATCC 12228.
The test system of assay [2] is Pseudomonas aeruginosa.
Assay [3] concerns Staphylococcus aureus.
Assay [4] deals with Escherichia coli.

Values after ≈ are worked out from the molar mass of the structure shown.

`CC(C)C[C@H](NC(=O)[C@H](Cc1ccc(O)cc1)NC(=O)[C@H](Cc1ccc(O)cc1)NC(=O)CNC(=O)[C@H](Cc1c[nH]c2ccccc12)NC(=O)[C@@H](N)CO)C(=O)NCC(=O)O` [SWGYYLG]: in assay [1], the MIC (commonly the lowest concentration that inhibits growth of the organism) was over 50 µM.

Regarding `CC[C@H](C)[C@H](NC(=O)[C@H](C)NC(=O)CNC(=O)[C@@H](NC(=O)[C@H](CCCCN)NC(=O)[C@H](CCCCN)NC(=O)[C@@H](NC(=O)[C@H](C)NC(=O)CNC(=O)[C@H](Cc1c[nH]c2ccccc12)NC(=O)[C@H](CCCCN)NC(=O)[C@H](CCCCN)NC(=O)[C@@H](NC(=O)[C@H](C)NC(=O)CNC(=O)[C@@H](NC(=O)[C@H](CCCCN)NC(=O)[C@@H](N)CCCCN)[C@@H](C)CC)[C@@H](C)CC)[C@@H](C)CC)[C@@H](C)CC)C(N)=O` [KKIGAIKKWGAIKKIGAI], the MIC in assay [2] was 66.5 µM (≈ 128 µg/mL); in assay [3], over 133 µM; in assay [4], 66.5 µM (≈ 128 µg/mL).

`CC(C)C[C@H](NC(=O)[C@H](Cc1ccc(O)cc1)NC(=O)[C@H](Cc1ccc(O)cc1)NC(=O)CNC(=O)[C@H](Cc1c[nH]c2ccccc12)NC(=O)[C@@H](N)CO)C(=O)NCC(=O)N[C@@H](CCCCN)C(=O)N[C@@H](CCCCN)C(=O)N[C@@H](C)C(=O)N[C@@H](CCCN=C(N)N)C(=O)N[C@@H](Cc1c[nH]c2ccccc12)C(=O)N[C@@H](CC(N)=O)C(=O)N[C@@H](CC(C)C)C(=O)N[C@@H](CCCCN)C(=O)N[C@@H](Cc1cnc[nH]1)C(=O)N1CCC[C@H]1C(=O)N[C@@H](Cc1ccc(O)cc1)C(=O)N[C@H](C(=O)N[C@@H](CCC(N)=O)C(=O)N[C@@H](Cc1ccccc1)C(=O)O)C(C)C` [SWGYYLGKKARWNLKHPYVQF] had a minimum inhibitory concentration (MIC) in assay [1] of over 50 µM.

As for `CC[C@H](C)[C@H](NC(=O)CNC(=O)[C@H](CC(C)C)NC(=O)[C@@H](NC(=O)[C@H](Cc1ccc(O)cc1)NC(=O)[C@@H](NC(=O)[C@H](CO)NC(=O)[C@@H](NC(=O)[C@@H]1CCCN1C(=O)[C@@H](NC(=O)[C@@H](N)CO)C(C)C)[C@@H](C)O)C(C)C)[C@@H](C)O)C(=O)N[C@@H](CCCCN)C(=O)N[C@H](C(=O)N[C@@H](CC(C)C)C(=O)N[C@@H](Cc1c[nH]c2ccccc12)C(=O)N[C@@H](CO)C(=O)N[C@@H](C)C(=O)N[C@@H](Cc1ccc(O)cc1)C(=O)N[C@@H](CCCCN)C(=O)N[C@@H](Cc1cnc[nH]1)C(=O)O)[C@@H](C)CC` [SVPTSVYTLGIKILWSAYKH], the MIC in assay [1] was determined as 50 µM (≈ 113 µg/mL).

For the compound `CSCC[C@H](NC(=O)[C@H](C)NC(=O)[C@H](CCC(=O)O)NC(=O)CNC(=O)[C@@H](NC(=O)[C@H](Cc1ccccc1)NC(=O)[C@H](C)NC(=O)[C@H](CCCCN)NC(=O)CNC(=O)[C@H](Cc1ccccc1)NC(=O)[C@H](CCCN=C(N)N)NC(=O)[C@H](CCCCN)NC(=O)[C@H](C)NC(=O)[C@H](CO)NC(=O)[C@H](Cc1cnc[nH]1)NC(=O)[C@H](CC(C)C)NC(=O)[C@H](Cc1ccccc1)NC(=O)[C@H](CCCCN)NC(=O)CNC(=O)[C@H](CC(C)C)NC(=O)CN)C(C)C)C(=O)N[C@@H](CC(N)=O)C(=O)N[C@@H](CO)C(N)=O` [GLGKFLHSAKRFGKAFVGEAMNS], the MIC in assay [2] is over 75 µM; in assay [3] it was over 75 µM; in assay [4], 75 µM (≈ 184 µg/mL).
